We go through five molecules from ChEMBL document CHEMBL1201862, “PubChem BioAssay data set” (2004).

The IC50 is the concentration that inhibits the measured activity by half. As a reminder, the AC50 is the concentration at which the activity in the assay is half-maximal. The term CC50 denotes the concentration at which the toxic effect on the cells reaches its halfway point. A word on the EC50: it is the concentration needed to bring the measured effect to its halfway point.

The target in one assay is T1, Bcl-2-related protein A1 (Mus musculus, UniProt Q07440).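 Further: confirmatory dose–response counterscreen on Bfl-1, used to check hits from a UBC13 polyubiquitin inhibitor campaign.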
T1 sequence (Q07440 whole entry): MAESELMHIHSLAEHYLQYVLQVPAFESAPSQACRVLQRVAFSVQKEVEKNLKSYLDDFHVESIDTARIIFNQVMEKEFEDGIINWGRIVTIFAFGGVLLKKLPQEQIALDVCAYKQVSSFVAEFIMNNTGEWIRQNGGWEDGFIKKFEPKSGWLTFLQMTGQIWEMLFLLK
It counts as functional.

The target in another assay is Paired box protein Pax-8 (Homo sapiens, UniProt Q06710). Put plainly: PAX8 transcriptional activity inhibition in RMG-I – RMG-I cells, luciferase, cherry-pick, dose response (AID 687027).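 Further: luciferase reporter driven by Pax8 target thyroperoxidase promoter measured by SteadyGlo luminescence.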 It counts as functional, cell-based.
Assay [1] in a line: Cytotoxicity screening for potential Inhibitors of Bacterial Capsule Biogenesis. [Related pubchem assays (depositor defined):AID488970]. It counts as functional.
For assay [2], the target named is T2, Ubiquitin-conjugating enzyme E2 N (Homo sapiens, UniProt P61088).
T2 sequence (P61088 whole entry): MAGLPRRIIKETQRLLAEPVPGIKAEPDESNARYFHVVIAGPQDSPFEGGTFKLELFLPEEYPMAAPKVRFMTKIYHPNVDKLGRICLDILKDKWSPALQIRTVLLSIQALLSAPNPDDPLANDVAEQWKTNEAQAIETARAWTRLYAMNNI
It counts as functional.

For assay [3], the target named is T2, Ubiquitin-conjugating enzyme E2 N. It counts as functional. The source holds these as a separate data set.
In another assay the target is T3, Protein skinhead-1 (Caenorhabditis elegans, UniProt P34707).
T3 sequence (P34707 whole entry): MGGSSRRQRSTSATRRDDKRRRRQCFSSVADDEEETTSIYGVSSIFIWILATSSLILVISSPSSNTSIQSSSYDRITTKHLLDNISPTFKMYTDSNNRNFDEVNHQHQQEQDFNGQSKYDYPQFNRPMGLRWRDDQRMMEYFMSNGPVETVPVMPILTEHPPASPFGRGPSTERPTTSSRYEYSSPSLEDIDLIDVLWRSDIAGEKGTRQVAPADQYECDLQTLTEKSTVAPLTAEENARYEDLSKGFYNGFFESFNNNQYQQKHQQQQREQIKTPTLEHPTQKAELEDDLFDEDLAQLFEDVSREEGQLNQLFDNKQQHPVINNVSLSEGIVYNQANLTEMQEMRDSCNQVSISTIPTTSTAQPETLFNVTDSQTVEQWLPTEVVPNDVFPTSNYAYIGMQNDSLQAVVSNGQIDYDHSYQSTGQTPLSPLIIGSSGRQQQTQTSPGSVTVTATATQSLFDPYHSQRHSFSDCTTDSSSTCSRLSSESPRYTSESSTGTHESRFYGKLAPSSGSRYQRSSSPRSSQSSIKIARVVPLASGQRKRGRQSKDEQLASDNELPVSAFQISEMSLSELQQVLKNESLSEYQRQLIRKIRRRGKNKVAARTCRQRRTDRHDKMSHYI
It counts as functional.

The target of assay [4] is Neurotensin receptor type 1 (Homo sapiens, UniProt P30989). It counts as functional.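 Further: Image-based confirmatory dose-response assay measuring agonist activity at NTR1; NTR1-expressing U2OS osteosarcoma cells imaged for beta-arrestin GFP spot formation; agonist potency where compounds increase beta-arrestin recruitment.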
Assay [5] can be described thus: Luminescent dose response cell-based high throughput screening assay for inhibitors of the Janus kinase 2 mutant JAK2V617F. [Related pubchem assays: 1446 (Primary screen.), 1521 (Confirmation assay.), 1486 (Counter screen.)]. It counts as functional. On the technique in general: Counterscreens check selectivity or assay interference.
Assay [6] addresses T4, Microphthalmia-associated transcription factor (Homo sapiens, UniProt O75030).
T4 sequence (O75030 whole entry): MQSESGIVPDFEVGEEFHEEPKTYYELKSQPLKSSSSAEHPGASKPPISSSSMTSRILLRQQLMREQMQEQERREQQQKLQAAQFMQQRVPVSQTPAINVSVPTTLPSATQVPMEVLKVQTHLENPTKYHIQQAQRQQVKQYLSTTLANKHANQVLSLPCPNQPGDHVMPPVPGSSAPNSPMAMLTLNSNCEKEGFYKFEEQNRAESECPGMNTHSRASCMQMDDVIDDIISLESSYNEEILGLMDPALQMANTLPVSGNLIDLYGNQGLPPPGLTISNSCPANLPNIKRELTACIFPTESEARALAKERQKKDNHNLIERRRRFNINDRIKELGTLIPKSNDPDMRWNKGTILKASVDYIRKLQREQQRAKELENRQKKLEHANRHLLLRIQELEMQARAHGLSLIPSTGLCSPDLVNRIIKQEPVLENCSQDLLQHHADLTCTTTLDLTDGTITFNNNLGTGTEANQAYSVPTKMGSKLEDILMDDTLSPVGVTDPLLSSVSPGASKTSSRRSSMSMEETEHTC
Put plainly: reducers of TRPM1 reporter luminescence, concentration series – cell-based, SK-MEL-5, cherry-picked, set 3, MITF inhibitor project, dose response (AID 493073).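 Further: SK-MEL-5 melanoma cells with luciferase driven by the MITF target TRPM1 promoter.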 It counts as functional.

The target in the next assay is Cytochrome P450 2C9 (Homo sapiens, UniProt P11712).
A further assay is described as follows: cells. It counts as functional.
The nature of assay [7]: THP-1 cell cytotoxicity, dose response, cytotoxicity control for non-replicating M. tuberculosis project (AID 489025). It counts as functional.
Assay [8] can be described thus: DRD fibroblast viability loss – cell-based, non-viral oncogenic, luminescence, dose response (AID 1934). It counts as functional. The note with it: Homo sapiens.
Assay [9] relates to BJ. Briefly: BJ-TERT-LT-ST fibroblast viability loss – cell-based, RAS-independent, luminescence, dose response (AID 1935).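 Further: BJ fibroblasts immortalized with TERT plus LT and ST oncogenes.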 It counts as functional. The note with it: Homo sapiens.
The nature of assay [10]: Luminescence Cell-Based Dose Retest to Confirm Inhibitors of Cancer Stem Cells. [Related pubchem assays (depositor defined):AID2717, AID2721]. It counts as functional, Homo sapiens. To be noted: Homo sapiens.
Assay [11] relates to BJ. Briefly: BJ-TERT fibroblast viability loss – cell-based, RAS-independent, luminescence, dose response (AID 1933). It counts as functional. To be noted: Homo sapiens.
The nature of assay [12]: Vero E6 cell cytotoxicity, dose response, cytotoxicity control for non-replicating M. tuberculosis project, secondary assay (AID 492998). It counts as functional, VeroE6. To be noted: Vero C1008.
The subject of assay [13] is BJ. Briefly: cells. It counts as functional, cell-based. To be noted: Homo sapiens.
The target of another assay is T5, ORF 73 (Human herpesvirus 8, UniProt O40947).
T5 sequence (O40947 whole entry): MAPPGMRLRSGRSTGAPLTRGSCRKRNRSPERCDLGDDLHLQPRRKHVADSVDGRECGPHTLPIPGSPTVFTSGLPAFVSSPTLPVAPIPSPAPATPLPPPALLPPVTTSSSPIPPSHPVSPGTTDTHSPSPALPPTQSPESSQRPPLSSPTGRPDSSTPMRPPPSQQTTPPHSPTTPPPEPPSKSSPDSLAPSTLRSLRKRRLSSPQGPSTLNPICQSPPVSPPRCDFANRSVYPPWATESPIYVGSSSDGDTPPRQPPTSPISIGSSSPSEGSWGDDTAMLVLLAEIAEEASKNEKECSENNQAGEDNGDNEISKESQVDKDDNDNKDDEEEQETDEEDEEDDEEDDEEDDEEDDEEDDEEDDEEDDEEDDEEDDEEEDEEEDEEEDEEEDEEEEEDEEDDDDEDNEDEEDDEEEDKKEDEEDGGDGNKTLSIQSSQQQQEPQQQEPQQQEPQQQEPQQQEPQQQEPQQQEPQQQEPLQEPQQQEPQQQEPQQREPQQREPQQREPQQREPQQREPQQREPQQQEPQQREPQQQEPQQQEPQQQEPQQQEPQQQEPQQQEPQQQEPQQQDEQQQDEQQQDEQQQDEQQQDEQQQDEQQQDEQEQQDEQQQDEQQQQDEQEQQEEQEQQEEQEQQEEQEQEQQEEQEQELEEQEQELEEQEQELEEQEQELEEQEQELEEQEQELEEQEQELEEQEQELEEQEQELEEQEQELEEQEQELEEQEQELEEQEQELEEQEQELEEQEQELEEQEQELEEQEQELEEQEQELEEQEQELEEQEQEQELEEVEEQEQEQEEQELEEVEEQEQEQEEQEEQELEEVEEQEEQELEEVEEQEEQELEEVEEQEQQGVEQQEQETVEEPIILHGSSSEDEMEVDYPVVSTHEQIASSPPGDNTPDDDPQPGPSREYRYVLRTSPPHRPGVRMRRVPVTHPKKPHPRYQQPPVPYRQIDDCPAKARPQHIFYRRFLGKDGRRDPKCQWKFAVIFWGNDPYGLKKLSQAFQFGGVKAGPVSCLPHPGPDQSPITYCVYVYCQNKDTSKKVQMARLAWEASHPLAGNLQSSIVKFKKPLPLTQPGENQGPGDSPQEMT
Put plainly: KSHV LANA DNA-binding disruption – biochemical, fluorescence polarization, cherry-picked samples, dose response (AID 504725).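 Further: fluorescence polarization of a labeled DNA duplex reporting LANA DNA binding; potency is for inhibitors that block LANA binding to the DNA.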 Further details: species or system Human gammaherpesvirus 8. (In general: Fluorescence polarisation rises when a labelled molecule tumbles more slowly, as on binding a larger partner.)

Assay [14] concerns the target Cystic fibrosis transmembrane conductance regulator/Golgi-associated PDZ and coiled-coil motif-containing protein (Homo sapiens, UniProt P13569+Q9HD26). Put plainly: potency against CAL PDZ-peptide interaction – biochemical, fluorescence polarization, Cerulean-tagged CAL PDZ, cherry-picks, dose response (AID 504773).
The next assay deals with Nonstructural protein 1 (Influenza A virus, UniProt Q194T2). It counts as functional, Influenza A virus (A/California/07/2009(H1N1)).
The target in assay [15] is Eukaryotic translation initiation factor 4E (Mus musculus, UniProt P63073). Put plainly: blockers of eIF4G binding by eIF4E – biochemical, TR-FRET, dose response (AID 855).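 Further: potency for disrupting eIF4E binding to eIF4GI seen as loss of FRET.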 It counts as functional. On the technique in general: Time-resolved FRET reads energy transfer from a long-lived donor to a nearby acceptor.
A further assay deals with HeLa. Put plainly: viability loss in HeLa cells – cell-based, 24 h, cherry-picked samples, cytotoxicity control, dose response (AID 504726).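 Further: potency for cytotoxicity as loss of luminescence signal.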 It counts as functional. The note with it: Homo sapiens.

Active and inactive are the calls of the source.

Chain of Neurotensin receptor type 1 (P30989 whole entry): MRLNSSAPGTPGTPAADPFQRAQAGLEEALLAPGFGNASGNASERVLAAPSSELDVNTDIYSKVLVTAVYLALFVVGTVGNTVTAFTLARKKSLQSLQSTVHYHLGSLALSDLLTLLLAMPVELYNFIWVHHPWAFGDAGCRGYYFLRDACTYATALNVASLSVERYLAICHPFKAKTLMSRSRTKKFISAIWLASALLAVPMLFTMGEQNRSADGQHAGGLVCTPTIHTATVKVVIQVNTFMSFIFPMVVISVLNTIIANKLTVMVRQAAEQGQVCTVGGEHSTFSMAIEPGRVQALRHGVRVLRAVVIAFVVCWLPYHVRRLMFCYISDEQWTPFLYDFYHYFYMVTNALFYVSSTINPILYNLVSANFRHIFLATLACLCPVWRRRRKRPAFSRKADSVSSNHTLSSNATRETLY
Chain of Paired box protein Pax-8 (Q06710 whole entry): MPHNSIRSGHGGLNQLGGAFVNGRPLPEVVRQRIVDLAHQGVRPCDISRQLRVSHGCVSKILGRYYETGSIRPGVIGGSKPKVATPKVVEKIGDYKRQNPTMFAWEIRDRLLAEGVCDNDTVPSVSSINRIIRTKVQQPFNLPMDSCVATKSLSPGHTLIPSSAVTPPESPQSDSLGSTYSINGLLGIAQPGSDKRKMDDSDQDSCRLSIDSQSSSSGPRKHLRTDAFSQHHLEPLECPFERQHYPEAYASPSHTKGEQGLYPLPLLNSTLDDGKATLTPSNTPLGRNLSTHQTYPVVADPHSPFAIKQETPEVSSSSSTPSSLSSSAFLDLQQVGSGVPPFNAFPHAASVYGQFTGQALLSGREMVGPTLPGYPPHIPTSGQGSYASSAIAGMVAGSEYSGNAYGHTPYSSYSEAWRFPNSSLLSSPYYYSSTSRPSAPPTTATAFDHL
Chain of Cystic fibrosis transmembrane conductance regulator/Golgi-associated PDZ and coiled-coil motif-containing protein (P13569 whole entry, other chains not shown): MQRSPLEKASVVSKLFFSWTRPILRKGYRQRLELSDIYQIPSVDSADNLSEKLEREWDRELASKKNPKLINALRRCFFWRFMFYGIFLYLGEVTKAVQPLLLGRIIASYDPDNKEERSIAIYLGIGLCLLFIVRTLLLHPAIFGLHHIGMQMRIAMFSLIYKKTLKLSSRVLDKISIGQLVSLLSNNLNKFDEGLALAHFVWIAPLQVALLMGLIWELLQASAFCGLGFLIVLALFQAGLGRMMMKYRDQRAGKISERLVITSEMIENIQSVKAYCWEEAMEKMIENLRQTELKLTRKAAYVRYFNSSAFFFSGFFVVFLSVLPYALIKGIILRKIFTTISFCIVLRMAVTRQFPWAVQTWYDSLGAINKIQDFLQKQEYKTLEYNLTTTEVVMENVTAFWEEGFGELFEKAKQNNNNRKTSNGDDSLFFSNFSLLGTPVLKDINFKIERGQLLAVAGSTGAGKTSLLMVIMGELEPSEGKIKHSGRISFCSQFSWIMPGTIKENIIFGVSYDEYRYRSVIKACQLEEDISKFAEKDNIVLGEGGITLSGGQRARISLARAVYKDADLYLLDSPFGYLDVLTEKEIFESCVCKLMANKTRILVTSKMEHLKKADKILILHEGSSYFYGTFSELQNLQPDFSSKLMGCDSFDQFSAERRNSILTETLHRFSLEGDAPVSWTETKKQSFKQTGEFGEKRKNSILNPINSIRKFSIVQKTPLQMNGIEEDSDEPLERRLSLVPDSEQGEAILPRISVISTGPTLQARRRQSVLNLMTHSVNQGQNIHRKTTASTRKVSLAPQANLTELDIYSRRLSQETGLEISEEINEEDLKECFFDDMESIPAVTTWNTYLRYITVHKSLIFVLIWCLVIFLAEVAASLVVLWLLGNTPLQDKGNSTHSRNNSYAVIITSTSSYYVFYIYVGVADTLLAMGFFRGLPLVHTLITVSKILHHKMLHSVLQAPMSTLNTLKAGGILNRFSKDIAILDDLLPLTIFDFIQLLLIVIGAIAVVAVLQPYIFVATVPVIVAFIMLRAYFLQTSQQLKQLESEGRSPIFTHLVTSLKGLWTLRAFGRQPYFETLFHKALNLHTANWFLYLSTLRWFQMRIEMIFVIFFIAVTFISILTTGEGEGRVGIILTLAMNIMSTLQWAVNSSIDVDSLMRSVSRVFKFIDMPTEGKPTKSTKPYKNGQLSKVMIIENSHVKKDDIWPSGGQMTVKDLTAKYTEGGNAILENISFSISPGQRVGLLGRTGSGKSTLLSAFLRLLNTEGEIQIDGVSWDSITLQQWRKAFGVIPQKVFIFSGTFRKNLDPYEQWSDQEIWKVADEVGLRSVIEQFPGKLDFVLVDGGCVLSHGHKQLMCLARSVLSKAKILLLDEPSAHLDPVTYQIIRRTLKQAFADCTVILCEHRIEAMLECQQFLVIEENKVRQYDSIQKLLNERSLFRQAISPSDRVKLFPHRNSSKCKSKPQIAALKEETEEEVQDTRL
Chain of Cytochrome P450 2C9 (P11712 whole entry): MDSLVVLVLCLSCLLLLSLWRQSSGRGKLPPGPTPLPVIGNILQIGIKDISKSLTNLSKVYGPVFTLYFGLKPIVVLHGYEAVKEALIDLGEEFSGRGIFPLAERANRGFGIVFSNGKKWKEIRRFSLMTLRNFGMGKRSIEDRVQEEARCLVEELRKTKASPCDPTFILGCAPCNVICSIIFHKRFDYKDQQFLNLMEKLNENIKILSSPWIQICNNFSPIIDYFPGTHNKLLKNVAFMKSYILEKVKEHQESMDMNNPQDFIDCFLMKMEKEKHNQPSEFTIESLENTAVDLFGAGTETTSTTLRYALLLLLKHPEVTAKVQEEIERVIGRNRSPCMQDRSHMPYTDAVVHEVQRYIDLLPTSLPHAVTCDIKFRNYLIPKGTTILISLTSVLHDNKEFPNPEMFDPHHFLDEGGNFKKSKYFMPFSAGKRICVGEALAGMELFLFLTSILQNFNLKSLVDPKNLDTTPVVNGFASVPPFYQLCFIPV
Chain of Eukaryotic translation initiation factor 4E (P63073 whole entry): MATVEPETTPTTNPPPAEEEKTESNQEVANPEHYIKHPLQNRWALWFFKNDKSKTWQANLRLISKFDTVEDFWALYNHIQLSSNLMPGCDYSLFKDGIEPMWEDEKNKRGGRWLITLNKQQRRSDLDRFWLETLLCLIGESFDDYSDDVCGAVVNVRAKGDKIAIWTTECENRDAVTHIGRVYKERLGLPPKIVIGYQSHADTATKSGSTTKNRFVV
Chain of Nonstructural protein 1 (Q194T2 whole entry): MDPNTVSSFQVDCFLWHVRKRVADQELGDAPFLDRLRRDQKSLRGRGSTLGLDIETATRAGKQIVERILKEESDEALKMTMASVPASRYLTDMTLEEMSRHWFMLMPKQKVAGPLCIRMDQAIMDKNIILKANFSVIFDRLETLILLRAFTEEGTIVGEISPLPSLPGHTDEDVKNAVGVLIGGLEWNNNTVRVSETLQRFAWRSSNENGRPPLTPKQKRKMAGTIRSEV

In the case of `O=C(Nc1cccc(C2=NCCN2)c1)Nc1cccc(C2=NCCN2)c1` [IMIDOCARB DIPROPIONATE], the values for the IC50 (on Bcl-2-related protein A1; in assay [2]; in assay [3]) were > 20 µM (inactive), 10.6 µM (active) and 13.2 µM (active), respectively. For the same molecule, the AC50 at Paired box protein Pax-8 was 0.879 µM (active). Also, the CC50 in assay [1] was > 100 µM (active).
`COc1ccc2nc(NC(=O)c3ccc(Br)s3)sc2c1`: on Protein skinhead-1, the IC50 was > 100 µM (inactive). For the same molecule, the CC50 in assay [1] is > 100 µM (active).
Take `C/C(=C\c1ccc(N(C)C)cc1)[N+](=O)[O-]`: the EC50 in assay [4] is 4.26 µM (active). In addition, the IC50 in assay [5] was 0.653 µM (active). In addition, the AC50 in [6] was 13.1 µM (active); on Cytochrome P450 2C9, 31.6 µM (inconclusive).
With `O=C1NC(=O)N(CCc2ccc(F)cc2)C(=O)/C1=C/C=C/c1ccccc1`, the IC50 in “cells” was 48.4 µM (active). In addition, the EC50 in assay [4] was 39.3 µM (inactive); in [8], 5.39 µM (inconclusive); with BJ [9], 11.6 µM (inconclusive); in the assay on BJ [11], 5.32 µM (inconclusive); in the assay on BJ [13], > 150 µM (not active). Further, the CC50 in [7] was 5.09 µM (active); in [12], 16.8 µM (active). For the same molecule, the AC50 in assay [10] is 1.05 µM (active).
With `COc1ccc(OC)c(-c2c3cc(O)c(=O)cc-3oc3cc(O)c(O)cc23)c1`, the AC50 at ORF 73 is 1.56 µM (active); in [14] it was 13.3 µM (active); with HeLa it was 135 µM (active). Moreover, the IC50 was 20.3 µM (active) on Nonstructural protein 1 and 15.7 µM (active) in assay [15].
